From the supplement of paper PMC8253809

What was measured:
[1] = system: DIPGX29 (H3.3 K27M diffuse intrinsic pontine glioma line); assay: EC50 (inflection of fitted growth-inhibition curve) (log10 M)
Method in brief: (§1)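 A pin tool was used to add a 10-point threefold dilution series (mean top concentration 35 μM), in triplicate, to patient-derived pHGG/DIPG cell lines and astrocyte controls seeded on 384-well plates coated with 1% Geltrex. After 7 days at 37 °C and 5% CO2 (3 days for iAstro), CellTiter-Glo luminescence was log2-transformed, normalised on each plate to % activity relative to negative (solvent) and positive control wells, and pooled. EC50 and maximal response (yFin) were read from the three- or four-parameter log-logistic fit with the lowest AICc.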

[2] = system: DIPGX37 (H3.3 K27M diffuse intrinsic pontine glioma line); assay: as above
Method in brief: as §1

[3] = system: HGGX39 (paediatric high-grade glioma line); assay: as above
Method in brief: as §1

[4] = system: HGGX6 (H3.3 G34R paediatric high-grade glioma line); assay: as above
Method in brief: as §1

[5] = system: DIPGX29; assay: maximal growth inhibition (yFin) relative to DMSO / staurosporine; higher = more efficacious
Method in brief: as §1

[6] = system: DIPGX37; assay: as above
Method in brief: as §1

[7] = system: HGGX39; assay: as above
Method in brief: as §1

[8] = system: HGGX6; assay: as above
Method in brief: as §1

[9] = system: DIPGX29; assay: area under dose-response curve of % growth inhibition (log2 RLU vs DMSO / staurosporine), 1e-11 to 1e-4 M (% x log10 M); higher = more growth inhibition
Method in brief: (§2)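 A 10-point threefold dilution series, mean top concentration 35 μM, was applied in triplicate to patient-derived pHGG/DIPG lines and astrocytes on 1% Geltrex-coated 384-well plates for 7 days (3 days for iAstro) at 37 °C, 5% CO2. Per-plate % activity between solvent and positive controls was calculated from log2-transformed CellTiter-Glo luminescence. Area under the curve followed from the trapezoid rule on a log-logistic fit, or on a smoothing spline when the sigmoid fit failed.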

[10] = system: DIPGX37; assay: as above
Method in brief: as §2

[11] = system: HGGX39; assay: as above
Method in brief: as §2

[12] = system: HGGX6; assay: as above
Method in brief: as §2

| Structure (SMILES) | EC50 (log10 M) [1] | EC50 (log10 M) [2] | EC50 (log10 M) [3] | EC50 (log10 M) [4] | maximal growth inhibition [5] [%] | maximal growth inhibition [6] [%] | maximal growth inhibition [7] [%] | maximal growth inhibition [8] [%] | area under dose-response curve [9] | area under dose-response curve [10] | area under dose-response curve [11] | area under dose-response curve [12] |
| --- | --- | --- | --- | --- | --- | --- | --- | --- | --- | --- | --- | --- |
| COc1cc2ncnc(Nc3ccc(F)c(Cl)c3)c2cc1OCCCN1CCOCC1 [GEFITINIB] | -4.7 | -4.66 | -4.65 | -4.67 | 58.3 | 69.8 | 73.7 | 65.7 | 54.3 | 46.1 | 47.9 | 47.8 |
| CN(C)c1ccc(C(=C2C=CC(=[N+](C)C)C=C2)c2ccc(N(C)C)cc2)cc1 [GENTIAN VIOLET] | -5.15 | -5.13 | -4.97 | -5.16 | 128 | 124 | 121 | 112 | 158 | 152 | 164 | 133 |
| COc1cc(C(=O)N2CC[C@@H](O)[C@@H](N)C2)cc2nc(-c3cc4ccccc4n3CC3CC3)n(C)c12 [GSK-484] | -4.94 | -4.89 | -4.99 | -4.98 | 50.1 | 64 | 20.9 | 45.4 | 54.6 | 67.7 | 20.6 | 48.9 |
| C=CC(=O)N1CCC[C@@H](n2nc(-c3ccc(Oc4ccccc4)cc3)c3c(N)ncnc32)C1 [IBRUTINIB] | -5 | -4.96 | -4.94 | -5.01 | 29.8 | 41.2 | 53.1 | 35.5 | 49.8 | 53.7 | 50.1 | 35.8 |
| O=C1[C@H](Cc2ccc(O)cc2)N2C(=O)CCN(C(=O)NCc3ccccc3)[C@H]2CN1Cc1cccc2ccccc12 [ICG001] | -5.37 | -5.54 | -5.67 | -5.14 | 21.3 | 33.4 | 32.6 | 31.8 | 29.3 | 51.9 | 52.2 | 41.9 |
| CC(C)(C)c1cc(C(C)(C)C)c(NC(=O)c2c[nH]c3ccccc3c2=O)cc1O [IVACAFTOR] | -4.99 | -4.98 | -5.04 | -5.01 | 90.9 | 97 | 97.1 | 91 | 90.3 | 99.3 | 101 | 91.8 |
| CC(=O)N1CCN(c2ccc(OCC3COC(Cn4ccnc4)(c4ccc(Cl)cc4Cl)O3)cc2)CC1 (centres undefined) [KETOCONAZOLE] | -4.92 | -4.96 | -5.12 | -4.94 | 40.2 | 37.6 | 68.2 | 56.7 | 40.9 | 36.1 | 73.6 | 53.4 |
| CCOC(=O)C1=C(C)NC(C)=C(C(=O)OCC)C1c1ccccc1/C=C/C(=O)OC(C)(C)C [LACIDIPINE] | -4.84 | -4.83 | -4.84 | -4.86 | 87.2 | 91.1 | 90.8 | 74.3 | 72.8 | 75.3 | 76.3 | 63.4 |
| CS(=O)(=O)CCNCc1ccc(-c2ccc3ncnc(Nc4ccc(OCc5cccc(F)c5)c(Cl)c4)c3c2)o1 [LAPATINIB] | -4.72 | -4.7 | -4.71 | -4.69 | 76.7 | 78.4 | 76.9 | 76.8 | 70.3 | 72.5 | 55 | 57.8 |
| Cc1cn(CCN2CCN(c3ccccc3-c3cc(C#N)cc(C(=O)NCCCN4CCCC4)c3)CC2)c2ccccc12 [LLY-507] | -5.13 | -5.22 | -4.84 | -5.12 | 76.7 | 75.6 | 79.1 | 79.4 | 86.5 | 92.2 | 66.6 | 92.5 |
| CN(C)C(=O)C(CCN1CCC(O)(c2ccc(Cl)cc2)CC1)(c1ccccc1)c1ccccc1 [LOPERAMIDE] | -4.79 | -4.74 | -4.75 | -4.74 | 81.5 | 93.9 | 80.5 | 79.2 | 75.5 | 84 | 60.8 | 58.7 |
| CC(C)OC(=O)C(C(=O)OC(C)C)=C1SC=CS1 [MALOTILATE] | -4.88 | -4.89 | -4.94 | -4.94 | 35.2 | 57.4 | 83.7 | 34.8 | 30.3 | 50.9 | 88.2 | 32.7 |
| Cc1ccc(NC(=O)c2ccc(CN3CCN(C)CC3)cc2)cc1Nc1nc(-c2cccnc2)cs1 [MASITINIB] | -4.69 | -4.65 | -4.71 | -4.66 | 72.3 | 81 | 81.1 | 78.3 | 57.8 | 52.8 | 66.4 | 64.6 |
| Cc1cccc(CN2CCN(C(c3ccccc3)c3ccc(Cl)cc3)CC2)c1 (centres undefined) [MECLIZINE] | -4.89 | -4.83 | -4.91 | -4.86 | 41.9 | 79.1 | 48.7 | 41.1 | 42.8 | 85.1 | 44.3 | 35.5 |
| CN(C)c1ccc2nc3ccc(=[N+](C)C)cc-3sc2c1 [METHYLENE BLUE] | -5.31 | -5.04 | -5.48 | -5.03 | 56.7 | 54.8 | 50.7 | 69.6 | 76.5 | 67.9 | 76.9 | 89.6 |
| Cc1c(CN2CCC(Nc3ncnc4sc(CC(F)(F)F)cc34)CC2)ccc2c1cc(C#N)n2Cc1cn[nH]c1 [MI-503] | -4.9 | -4.98 | -5.14 | -4.9 | 74 | 72.1 | 74.2 | 71.9 | 92.6 | 70.7 | 84.8 | 83.9 |

| Structure (SMILES) | EC50 (log10 M) [1] | EC50 (log10 M) [2] | EC50 (log10 M) [3] | EC50 (log10 M) [4] | maximal growth inhibition [5] [%] | maximal growth inhibition [6] [%] | maximal growth inhibition [7] [%] | maximal growth inhibition [8] [%] | area under dose-response curve [9] | area under dose-response curve [10] | area under dose-response curve [11] | area under dose-response curve [12] |
| --- | --- | --- | --- | --- | --- | --- | --- | --- | --- | --- | --- | --- |
| Clc1ccc(COC(Cn2ccnc2)c2ccc(Cl)cc2Cl)c(Cl)c1 (centres undefined) [MICONAZOLE] | -4.89 | -4.79 | -4.94 | -4.87 | 45.9 | 61.9 | 42.1 | 41.5 | 46.5 | 48.6 | 39.2 | 35.5 |
| CO[C@@]12[C@H](COC(N)=O)C3=C(C(=O)C(C)=C(N)C3=O)N1C[C@@H]1N[C@@H]12 [MITOMYCIN C] | -4.78 | -4.87 | -4.78 | -4.76 | 62.3 | 73 | 69.7 | 66.2 | 78 | 95.2 | 91.5 | 75.4 |
| COc1c(C)c2c(c(O)c1C/C=C(\C)CCC(=O)OCCN1CCOCC1)C(=O)OC2 [MYCOPHENOLATE MOFETIL] | -5.33 | -5.33 | -5.61 | -5.49 | 24.8 | 30.5 | 24.4 | 20 | 36.4 | 41.2 | 39.6 | 30.4 |
| O=C(N/N=C/c1ccc([N+](=O)[O-])o1)c1ccc(O)cc1 [NIFUROXAZIDE] | -4.78 | -4.75 | -4.81 | -4.77 | 81.1 | 81.6 | 49.3 | 74.2 | 73.5 | 78.2 | 39.4 | 56.6 |
| CCCCCCCCOc1ccccc1C(=O)Nc1ccc(C(=O)OCC[N+](C)(CC)CC)cc1 [OTILONIUM] | -4.75 | -4.86 | -4.96 | -4.88 | 22.4 | 26.4 | 77.5 | 69.5 | 16.8 | 22.7 | 74.2 | 61.2 |
| CCN(CC)CCOCCOC(=O)C(CC)(CC)c1ccccc1 [OXELADIN] | -4.79 | -4.88 | -4.84 | -4.83 | 25.1 | 34.4 | 64.4 | 28.2 | 19.7 | 35.4 | 59.1 | 28.1 |
| CN(C(=O)CN(CCO)CC(=O)N(C)C(C)(C)Cc1ccccc1)C(C)(C)Cc1ccccc1 [OXETHAZAINE] | -4.81 | -4.8 | -4.81 | -4.82 | 77.7 | 82.1 | 88.2 | 47.3 | 63 | 65.5 | 71.1 | 38.4 |
| N=C(N)c1ccc(OCCCCCOc2ccc(C(=N)N)cc2)cc1 [PENTAMIDINE] | -5.15 | -5.08 | -6.05 | -5.4 | 38.4 | 31.7 | 32.4 | 33.1 | 55.6 | 50 | 66.5 | 45.3 |
| COc1cc2nc(N3CCN(C(=O)c4ccco4)CC3)nc(N)c2cc1OC [PRAZOSIN] | -4.88 | -4.92 | -4.9 | -5.03 | 75.3 | 75.4 | 74.7 | 75 | 66.6 | 75.3 | 66.9 | 76.9 |
| COc1cc(NC(C)CCCN)c2ncccc2c1 (centres undefined) [PRIMAQUINE] | -5.69 | -5.5 | -5.5 | -5.38 | 72.2 | 72.9 | 75.8 | 78 | 131 | 116 | 113 | 107 |
| NCCOc1cc(C(=O)Nc2cc(OCCN)c3ccccc3n2)nc(C(=O)Nc2cc(OCCN)c3ccccc3n2)c1 [PYRIDOSTATIN] | -5.01 | -5 | -4.99 | -5.03 | 61 | 31.7 | 59.6 | 56.9 | 74 | 54 | 58.1 | 82.2 |
| [O-][n+]1ccccc1[S-].[O-][n+]1ccccc1[S-].[Zn+2] [PYRITHIONE ZINC] | -5.6 | -5.23 | -5.61 | -5.55 | 82.5 | 93.1 | 83.5 | 75.7 | 130 | 112 | 135 | 116 |
| CCN(CC)CCCC(C)Nc1c2ccc(Cl)cc2nc2ccc(OC)cc12 (centres undefined) [QUINACRINE] | -4.79 | -4.78 | -4.75 | -4.97 | 74.8 | 72.4 | 74.3 | 74.3 | 79.9 | 56 | 55.7 | 73.7 |
| O=C(c1ccc(OCCN2CCCCC2)cc1)c1c(-c2ccc(O)cc2)sc2cc(O)ccc12 [RALOXIFENE] | -4.93 | -4.93 | -4.93 | -4.88 | 68.3 | 73.5 | 73.2 | 73.2 | 63.5 | 68.2 | 67.7 | 64.5 |
| CNC(=O)c1cc(Oc2ccc(NC(=O)Nc3ccc(Cl)c(C(F)(F)F)c3)c(F)c2)ccn1 [REGORAFENIB] | -4.87 | -5.37 | -5.33 | -5.33 | 37.6 | 43.5 | 33.2 | 38 | 39.5 | 62.5 | 55.2 | 70.8 |
| O=C(CCCCCCNC(=O)c1cnc(N(c2ccccc2)c2ccccc2)nc1)NO [ROCILINOSTAT] | -4.94 | -4.87 | -4.96 | -4.9 | 62.1 | 39.7 | 26.8 | 39.1 | 63.1 | 60.5 | 25.7 | 49.1 |
